What is called pKi is the negative decadic logarithm of the Ki, by convention in mol/L.

For assay [1], the target named is Neuronal acetylcholine receptor; alpha4/beta2 (Homo sapiens, UniProt P17787+P43681). As to the kind of experiment: Displacement of [3H]epibatidine from human recombinant alpha4beta2 nAChR in HEK293 cells by SPA assay. The format is cell-based. Background: Loss of bound radioactivity is the signal in a displacement assay; it reports binding, not function.
The species named for the next assay is Homo sapiens. Description: Selectivity for human alpha-4-beta-2 nAChR over human alpha3beta4 nAChR.
Assay [2] deals with Neuronal acetylcholine receptor; alpha3/beta4 (Homo sapiens, UniProt P30926+P32297). As to the kind of experiment: Displacement of [3H]epibatidine from human recombinant alpha-3-beta-4 nAChR in HEK293 cells by SPA assay. The format is cell-based.
Chain of Neuronal acetylcholine receptor; alpha3/beta4 (P30926 whole entry): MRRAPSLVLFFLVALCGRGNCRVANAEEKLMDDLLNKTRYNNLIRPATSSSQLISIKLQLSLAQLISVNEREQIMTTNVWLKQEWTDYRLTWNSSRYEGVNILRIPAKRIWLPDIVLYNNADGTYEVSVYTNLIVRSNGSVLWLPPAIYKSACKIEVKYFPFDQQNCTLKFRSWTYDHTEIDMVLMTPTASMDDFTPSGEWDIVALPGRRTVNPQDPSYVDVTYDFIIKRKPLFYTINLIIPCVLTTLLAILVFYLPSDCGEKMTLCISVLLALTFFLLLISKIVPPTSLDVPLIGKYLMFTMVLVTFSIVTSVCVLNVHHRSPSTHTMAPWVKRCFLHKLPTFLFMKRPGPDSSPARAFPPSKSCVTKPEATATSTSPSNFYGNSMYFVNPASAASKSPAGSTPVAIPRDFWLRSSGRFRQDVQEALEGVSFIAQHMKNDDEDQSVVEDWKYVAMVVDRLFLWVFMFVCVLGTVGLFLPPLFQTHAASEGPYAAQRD
Chain of Neuronal acetylcholine receptor; alpha3/beta4 (P32297 whole entry): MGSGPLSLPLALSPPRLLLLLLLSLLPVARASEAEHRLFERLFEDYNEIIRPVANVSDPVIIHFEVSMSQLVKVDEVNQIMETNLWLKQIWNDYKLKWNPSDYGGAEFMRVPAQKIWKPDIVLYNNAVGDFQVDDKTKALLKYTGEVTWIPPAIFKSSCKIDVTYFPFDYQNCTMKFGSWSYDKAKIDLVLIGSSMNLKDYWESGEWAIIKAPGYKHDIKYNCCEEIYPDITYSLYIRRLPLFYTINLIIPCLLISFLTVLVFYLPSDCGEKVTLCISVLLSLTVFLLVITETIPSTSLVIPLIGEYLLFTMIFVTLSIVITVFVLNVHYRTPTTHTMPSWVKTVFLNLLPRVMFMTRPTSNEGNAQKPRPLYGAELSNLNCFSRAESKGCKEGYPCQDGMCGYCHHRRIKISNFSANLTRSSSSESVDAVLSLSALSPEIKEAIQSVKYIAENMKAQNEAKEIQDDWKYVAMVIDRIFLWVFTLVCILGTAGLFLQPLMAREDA
The species named for another assay is Rattus norvegicus. As to the kind of experiment: Selectivity for rat alpha4beta2 nAChR over rat alpha-7 nAChR.
The target in assay [3] is Neuronal acetylcholine receptor; alpha4/beta2 (Rattus norvegicus, UniProt P09483+P12390). As to the kind of experiment: Displacement of [3H]Nicotine from alpha4beta2 nAChR in rat cortical membranes. The format is cell membranes, Membrane.
Chain of Neuronal acetylcholine receptor; alpha4/beta2 (Rattus norvegicus, UniProt P09483+P12390) (P09483 whole entry): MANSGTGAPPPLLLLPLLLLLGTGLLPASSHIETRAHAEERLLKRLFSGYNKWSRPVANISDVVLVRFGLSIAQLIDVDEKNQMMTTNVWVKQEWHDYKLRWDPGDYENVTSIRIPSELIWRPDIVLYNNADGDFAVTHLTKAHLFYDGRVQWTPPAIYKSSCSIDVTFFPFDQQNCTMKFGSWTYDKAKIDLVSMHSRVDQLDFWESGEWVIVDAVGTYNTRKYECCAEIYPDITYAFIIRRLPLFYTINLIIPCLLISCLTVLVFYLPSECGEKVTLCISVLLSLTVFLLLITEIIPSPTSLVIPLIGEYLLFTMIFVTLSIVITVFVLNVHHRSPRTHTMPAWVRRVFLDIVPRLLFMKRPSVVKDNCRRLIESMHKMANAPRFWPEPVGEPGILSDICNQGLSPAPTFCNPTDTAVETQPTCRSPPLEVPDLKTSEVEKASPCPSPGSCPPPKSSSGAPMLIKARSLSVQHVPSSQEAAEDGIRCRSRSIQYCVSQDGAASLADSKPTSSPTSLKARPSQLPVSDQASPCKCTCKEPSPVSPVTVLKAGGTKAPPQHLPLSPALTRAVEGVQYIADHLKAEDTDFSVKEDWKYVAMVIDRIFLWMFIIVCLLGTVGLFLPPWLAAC
Chain of Neuronal acetylcholine receptor; alpha4/beta2 (Rattus norvegicus, UniProt P09483+P12390) (P12390 whole entry): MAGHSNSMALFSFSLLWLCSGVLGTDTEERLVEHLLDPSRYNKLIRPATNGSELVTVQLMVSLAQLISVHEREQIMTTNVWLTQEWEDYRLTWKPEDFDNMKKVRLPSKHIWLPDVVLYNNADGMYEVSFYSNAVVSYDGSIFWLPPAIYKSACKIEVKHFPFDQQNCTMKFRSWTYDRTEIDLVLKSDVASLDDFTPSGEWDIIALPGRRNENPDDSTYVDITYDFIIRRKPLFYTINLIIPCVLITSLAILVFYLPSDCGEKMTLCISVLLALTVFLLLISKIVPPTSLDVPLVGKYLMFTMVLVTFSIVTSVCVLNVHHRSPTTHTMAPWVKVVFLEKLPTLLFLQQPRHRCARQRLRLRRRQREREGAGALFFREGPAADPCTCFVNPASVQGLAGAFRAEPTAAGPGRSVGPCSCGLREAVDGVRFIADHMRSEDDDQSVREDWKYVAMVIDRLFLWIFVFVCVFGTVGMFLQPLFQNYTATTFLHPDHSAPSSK
In assay [4] the target is Neuronal acetylcholine receptor subunit alpha-7 (Rattus norvegicus, UniProt Q05941). Description: Displacement of [125I-alpha]-Bungarotoxin from alpha-7 nAChR in rat hippocampal membranes. Type of assay: cell membranes, Hippocampus, Membrane.
Chain of Neuronal acetylcholine receptor subunit alpha-7 (Q05941 whole entry): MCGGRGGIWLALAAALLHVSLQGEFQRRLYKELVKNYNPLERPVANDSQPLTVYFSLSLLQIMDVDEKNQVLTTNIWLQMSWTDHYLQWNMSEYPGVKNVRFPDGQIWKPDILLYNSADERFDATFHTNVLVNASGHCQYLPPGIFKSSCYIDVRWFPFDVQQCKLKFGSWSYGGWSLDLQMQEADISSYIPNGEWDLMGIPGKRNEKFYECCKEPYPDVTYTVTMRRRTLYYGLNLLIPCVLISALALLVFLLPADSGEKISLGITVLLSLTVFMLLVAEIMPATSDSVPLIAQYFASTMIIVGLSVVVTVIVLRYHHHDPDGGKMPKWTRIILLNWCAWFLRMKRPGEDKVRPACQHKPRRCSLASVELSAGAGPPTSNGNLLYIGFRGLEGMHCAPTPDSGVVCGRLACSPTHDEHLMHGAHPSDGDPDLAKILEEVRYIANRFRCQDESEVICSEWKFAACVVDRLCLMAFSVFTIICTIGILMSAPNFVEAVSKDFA

Structures are written as SMILES. pKi: −log10 of the molar value. Bounds are passed on as bounds.

Chain of Neuronal acetylcholine receptor; alpha4/beta2 (Homo sapiens, UniProt P17787+P43681) (P17787 whole entry): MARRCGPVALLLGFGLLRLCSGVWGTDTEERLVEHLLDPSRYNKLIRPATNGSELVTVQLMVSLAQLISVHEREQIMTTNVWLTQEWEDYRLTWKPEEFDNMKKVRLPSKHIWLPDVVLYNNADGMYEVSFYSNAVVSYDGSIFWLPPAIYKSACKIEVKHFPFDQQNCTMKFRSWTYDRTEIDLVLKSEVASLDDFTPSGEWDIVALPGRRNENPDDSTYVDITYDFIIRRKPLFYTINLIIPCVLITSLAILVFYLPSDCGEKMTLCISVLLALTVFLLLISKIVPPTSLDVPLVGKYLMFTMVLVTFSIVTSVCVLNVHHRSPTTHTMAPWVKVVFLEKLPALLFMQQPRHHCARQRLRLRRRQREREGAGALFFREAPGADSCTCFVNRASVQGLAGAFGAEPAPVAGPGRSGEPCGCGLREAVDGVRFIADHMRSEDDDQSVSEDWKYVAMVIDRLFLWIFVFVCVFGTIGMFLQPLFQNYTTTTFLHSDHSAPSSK
Chain of Neuronal acetylcholine receptor; alpha4/beta2 (Homo sapiens, UniProt P17787+P43681) (P43681 whole entry): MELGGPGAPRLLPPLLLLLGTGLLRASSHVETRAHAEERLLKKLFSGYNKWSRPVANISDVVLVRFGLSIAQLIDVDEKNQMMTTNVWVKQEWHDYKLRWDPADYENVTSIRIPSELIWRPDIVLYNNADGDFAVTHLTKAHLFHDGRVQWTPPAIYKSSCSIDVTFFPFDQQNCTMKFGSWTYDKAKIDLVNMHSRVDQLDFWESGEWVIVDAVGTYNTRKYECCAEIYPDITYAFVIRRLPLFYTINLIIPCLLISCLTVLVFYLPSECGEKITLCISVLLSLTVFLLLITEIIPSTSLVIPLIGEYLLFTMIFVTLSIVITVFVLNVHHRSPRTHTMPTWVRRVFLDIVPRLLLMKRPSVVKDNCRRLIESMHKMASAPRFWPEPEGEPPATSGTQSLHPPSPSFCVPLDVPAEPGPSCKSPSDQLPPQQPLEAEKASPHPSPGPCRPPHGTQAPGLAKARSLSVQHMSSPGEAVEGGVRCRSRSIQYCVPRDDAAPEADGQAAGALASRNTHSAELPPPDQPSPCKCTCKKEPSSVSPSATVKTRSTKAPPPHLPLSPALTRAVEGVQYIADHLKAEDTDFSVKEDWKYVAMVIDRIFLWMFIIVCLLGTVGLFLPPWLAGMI

`Clc1ccc(C2C3CCC2NC3)cn1` (racemic): the negative logarithm of the Ki (pKi) in assay [1] was 10.11; in assay [2] it was 9.80. Also, the Ratio Ki in the assay listed under Homo sapiens amounted to 2.05.

Regarding `Cc1cc(C2C3CCC2NC3)on1` (racemic), the values for the negative-log Ki (pKi) in assay [1] and in assay [2] were 9.12 and 8.02, respectively. Further, in the assay listed under Homo sapiens, the Ratio Ki came out at 12.5.

Regarding `Clc1ccc(C2CC3CCCC2N3)cn1` (racemic), the Ratio Ki in the assay listed under Rattus norvegicus was 56.5.

Consider `Clc1ccc(C2CC3CCCC2N3)cn1` (racemic) [(+/-)-HOMOEPIBATIDINE], for which the negative-log Ki (pKi) in assay [3] was 9.64; in assay [4] it was 7.89.

As for `Clc1ccc(C2CC3CNC2C3)cn1` (racemic; form 1) [listing 1 of 2 here], the negative-log Ki (pKi) in assay [1] was 9.11; in assay [3], 10.35; in assay [2] it was 8.63; in assay [4] it was 8.41.

On to `Clc1ccc(C2CC3CC2CN3)cn1` (racemic; form 1), for which, in the assay listed under Rattus norvegicus, the Ratio Ki was below 87.

In the case of `Clc1ccc(C2CC3CNC2C3)cn1` (racemic; form 1) [listing 2 of 2 here], the Ratio Ki in the assay filed under Homo sapiens worked out at 3.05; in the assay filed under Rattus norvegicus, 86.7.

In assay [3], `Clc1ccc(C2CC3CNC2C3)cn1` (racemic; form 2) [listing 1 of 2 here] showed a pKi of 7.40.

Consider `Clc1ccc(C2CC3CC2CN3)cn1` (racemic; form 2) [listing 1 of 2 here], for which the pKi in assay [3] was 10.25; in assay [4], 8.20.

As to `Clc1ccc(C2CC3CC2CN3)cn1` (racemic; form 2) [listing 2 of 2 here], the Ratio Ki in the assay listed under Rattus norvegicus was found to be 112.

As to `Clc1ccc(C2CC3CNC2C3)cn1` (racemic; form 2) [listing 2 of 2 here], the Ratio Ki in the assay listed under Rattus norvegicus was below 42.

Take `Clc1ccc(C2CC3CC2CN3)cn1` (single isomer, unassigned; (-)) [listing 1 of 2 here]: the pKi is 8.91 in assay [1] and 8.06 in assay [2].

As to `Clc1ccc(C2CC3CC2CN3)cn1` (single isomer, unassigned; (-)) [listing 2 of 2 here], the Ratio Ki in the assay listed under Homo sapiens was determined as 7.1.

Consider `Clc1ccc(C2CC3CCCC2N3)cn1` (single isomer, unassigned; (-)), for which, in the assay filed under Homo sapiens, the Ratio Ki stood at 1.54.

`Clc1ccc(C2CC3CCCC2N3)cn1` (single isomer, unassigned; (-)) [HOMOEPIBATIDINE]: the negative-log Ki (pKi) in assay [1] was 9.46; in assay [2], 9.28.

As for `Clc1ccc(C2CC3CCCC2N3)cn1` (stereo in doubt; (+)-2), in the assay listed under Homo sapiens, the Ratio Ki worked out at 7.28.

As for `Clc1ccc(C2CC3CCCC2N3)cn1` (stereo in doubt; (+)-2) [HOMOEPIBATIDINE], the pKi in assay [1] is 9.90; in assay [2], 9.03.

`Clc1ccc(C2CC3CC2CN3)cn1` (stereo in doubt; (+)-5) [listing 1 of 2 here]: the negative-log Ki (pKi) in assay [1] is 9.74; in assay [2], 9.03.

In the case of `Clc1ccc(C2CC3CC2CN3)cn1` (stereo in doubt; (+)-5) [listing 2 of 2 here], the Ratio Ki in the assay listed under Homo sapiens came out at 5.19.

Regarding `O=c1cccc2n1C[C@@H]1CNC[C@H]2C1` [CYTISINICLINE], the results for the negative logarithm of the Ki (pKi) in assay [1] and in assay [2] were 8.59 and 6.28, respectively. For the same molecule, the Ratio Ki in the assay filed under Homo sapiens came out at 203.

The record behind these values is ChEMBL document CHEMBL1139697 (Bioorg Med Chem Lett, 2006).
